The record followed here is patent US20240317708A1, “INHIBITORS OF TRANSGLUTAMINASES” (ZEDIRA GMBH, priority 2021, published 2024).

Data set [1] can be described thus: Caco-2 permeability assay (CacoReady kit). To be noted: human. The format is in vitro ADME. The essentials: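 Papp values come from Caco-2 barrier studies intended to predict oral bioavailability; the manufacturer's procedure for the ready-made kit was followed.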
On the technique in general: Caco-2 monolayers are a common model of the intestinal barrier.

The nature of data set [2]: Log D shake flask method (octanol / PBS pH 7.4, HPLC). The format is physicochemical. To be noted: octanol/phosphate-buffered saline (PBS); octanol / PBS pH 7.4, shake flask. How it is done: In order to classify the inventive compounds according to their lipophilicity, Log D values (distribution coefficient) were determined by means of the well-established shake flask method, measuring the partition of a compound between an octanol and phosphate-buffered saline (PBS, pH 7.4) by HPLC.

Data set [3] addresses T1, recombinant human transglutaminase 2 (Homo sapiens, UniProt P21980).
T1 construct: purchased Zedira T022
T1 sequence (P21980 1-687): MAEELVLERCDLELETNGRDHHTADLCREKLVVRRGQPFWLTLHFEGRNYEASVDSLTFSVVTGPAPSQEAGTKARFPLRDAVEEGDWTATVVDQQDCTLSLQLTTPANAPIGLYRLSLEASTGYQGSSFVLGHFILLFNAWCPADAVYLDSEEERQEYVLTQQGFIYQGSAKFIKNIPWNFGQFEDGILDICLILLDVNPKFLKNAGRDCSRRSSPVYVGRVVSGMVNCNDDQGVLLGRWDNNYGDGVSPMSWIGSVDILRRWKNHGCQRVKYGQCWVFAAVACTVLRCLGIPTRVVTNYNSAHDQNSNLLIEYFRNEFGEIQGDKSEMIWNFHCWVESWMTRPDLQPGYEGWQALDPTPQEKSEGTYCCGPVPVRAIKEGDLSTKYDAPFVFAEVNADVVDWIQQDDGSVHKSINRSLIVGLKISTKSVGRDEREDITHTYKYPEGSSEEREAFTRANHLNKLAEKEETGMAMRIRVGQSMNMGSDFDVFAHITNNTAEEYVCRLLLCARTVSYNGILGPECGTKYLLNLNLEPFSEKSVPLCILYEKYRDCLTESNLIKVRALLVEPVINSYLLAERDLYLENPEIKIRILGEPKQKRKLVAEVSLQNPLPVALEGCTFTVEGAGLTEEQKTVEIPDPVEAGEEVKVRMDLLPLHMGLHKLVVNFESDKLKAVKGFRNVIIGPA
Kind of data set: Transglutaminase assay (dansylcadaverine incorporation into dimethylcasein, DCC-assay). Type of data set: biochemical. To be noted: recombinant human TG2 10 nM, dansylcadaverine/dimethylcasein, 37° C. The essentials: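 IC50 derived from fluorescence slope between 20 and 30 min (λex 330 nm, λem 500 nm, 37 °C), expressed relative to a 2% DMSO control. Reaction: 10 nM recombinant human TG2, 4 μM dimethylcasein, 16.7 μM dansylcadaverine, 10 mM CaCl2 and glutathione, pH 8.0.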

As a reminder, the Papp is the rate of passage across a membrane or cell layer, normalised by area and donor concentration. Usually logD stands for lipophilicity at a set pH, counting ionised and neutral species. Low values mean a more hydrophilic compound, high ones a more lipophilic compound. One may read the IC50 as the concentration that inhibits the measured activity by half. In data set [1], `CCCCCNC(=O)/C=C/CC[C@H](NC(=O)c1cn2ccsc2n1)C(=O)Nc1cccn(CC(=O)NC23CC(C2)C3)c1=O` [III-143, (S,E)-N7-(1-(2-(bicyclo[1.1.1]pentan-1-ylamino)-2-oxoethyl)-2-oxo-1,2-dihydropyridin-3-yl)-6-(imidazo[2,1-b]thiazole-6-carboxamido)-N1-pentylhept-2-enediamide] displayed a Papp of 1 to 10 ×10⁻⁶ cm/s. The compound further returned a logD in data set [2] of 1 to 3. In addition, the IC50 in data set [3] lay within 0.25 to 1.5 µM.
The matching figures for `O=C(/C=C/CC[C@H](NC(=O)c1cnc2ccc(OC(F)(F)F)cc2c1O)C(=O)Nc1cccn(CC(=O)NC23CC(C2)C3)c1=O)NC1CC1` [III-144, (S,E)-N7-(1-(2-(bicyclo[1.1.1]pentan-1-ylamino)-2-oxoethyl)-2-oxo-1,2-dihydropyridin-3-yl)-N1-cyclopropyl-6-(4-hydroxy-6-(trifluoromethoxy)quinoline-3-carboxamido)hept-2-enediamide]: less than 1 ×10⁻⁶ cm/s, 3 to 5 and 0.25 to 1.5 µM.
For the compound `O=C(/C=C/CC[C@H](NC(=O)c1cc2ccccc2nn1)C(=O)Nc1cccn(CC(=O)NC23CC(C2)C3)c1=O)NC1CC1` [III-145, (S,E)-N7-(1-(2-(bicyclo[1.1.1]pentan-1-ylamino)-2-oxoethyl)-2-oxo-1,2-dihydropyridin-3-yl)-6-(cinnoline-3-carboxamido)-N1-cyclopropylhept-2-enediamide], in data set [1], the Papp was less than 1 ×10⁻⁶ cm/s. The logD in data set [2] is less than 1. Further, the IC50 in data set [3] fell in the range of 0.025 to 0.25 µM.
With `Cc1nc2ncccc2cc1C(=O)N[C@@H](CC/C=C/C(=O)NC1CCCC1)C(=O)Nc1cccn(CC(=O)NC23CC(C2)C3)c1=O` [III-146, (S,E)-N7-(1-(2-(bicyclo[1.1.1]pentan-1-ylamino)-2-oxoethyl)-2-oxo-1,2-dihydropyridin-3-yl)-N1-cyclopentyl-6-(2-methyl-1,8-naphthyridine-3-carboxamido)hept-2-enediamide], in data set [1], the apparent permeability coefficient (Papp) is less than 1 ×10⁻⁶ cm/s. In data set [2], this compound registered a logD of less than 1. Further, the half-inhibitory concentration (IC50) in data set [3] is 0.25 to 1.5 µM.
Take `CCc1c(C(=O)N[C@@H](CC/C=C/C(=O)NC2CCCC2)C(=O)Nc2cccn(CC(=O)NC34CC(C3)C4)c2=O)oc2ccccc12` [III-147, (S,E)-N7-(1-(2-(bicyclo[1.1.1]pentan-1-ylamino)-2-oxoethyl)-2-oxo-1,2-dihydropyridin-3-yl)-N1-cyclopentyl-6-(3-ethylbenzofuran-2-carboxamido)hept-2-enediamide]: the Papp in data set [1] fell in the range of 1 to 10 ×10⁻⁶ cm/s. In data set [2], this compound registered a logD of 1 to 3. In data set [3], the IC50 was in the range of 0.025 to 0.25 µM.
For `CCn1c(C(=O)N[C@@H](CC/C=C/C(=O)NC2CCCCC2)C(=O)Nc2cccn(CC(=O)NC34CC(C3)C4)c2=O)cc2ccccc21` [III-148, (S,E)-N7-(1-(2-(bicyclo[1.1.1]pentan-1-ylamino)-2-oxoethyl)-2-oxo-1,2-dihydropyridin-3-yl)-N1-cyclohexyl-6-(1-ethyl-1H-indole-2-carboxamido)hept-2-enediamide] the same measures were 1 to 10 ×10⁻⁶ cm/s, 3 to 5 and 0.025 to 0.25 µM.
For `O=C(/C=C/CC[C@H](NC(=O)c1ccc2c(c1)NCCC2)C(=O)Nc1cccn(CC(=O)NC23CC(C2)C3)c1=O)NC1CCCCC1` [III-149, (S,E)-N7-(1-(2-(bicyclo[1.1.1]pentan-1-ylamino)-2-oxoethyl)-2-oxo-1,2-dihydropyridin-3-yl)-N1-cyclohexyl-6-(1,2,3,4-tetrahydroquinoline-7-carboxamido)hept-2-enediamide] the same measures were less than 1 ×10⁻⁶ cm/s, 1 to 3 and 0.25 to 1.5 µM.
As for `C=CCNC(=O)/C=C/CC[C@H](NC(=O)c1ccc2cnccc2n1)C(=O)Nc1cccn(CC(=O)NC23CC(C2)C3)c1=O` [III-150, (S,E)-N1-allyl-N7-(1-(2-(bicyclo[1.1.1]pentan-1-ylamino)-2-oxoethyl)-2-oxo-1,2-dihydropyridin-3-yl)-6-(1,6-naphthyridine-2-carboxamido)hept-2-enediamide], the Papp in data set [1] is less than 1 ×10⁻⁶ cm/s. For the same compound, in data set [2], the logD was less than 1. Moreover, the IC50 in data set [3] fell in the range of 0.025 to 0.25 µM.
In turn, `C=CCNC(=O)/C=C/CC[C@H](NC(=O)c1nccc2cnccc12)C(=O)Nc1cccn(CC(=O)NC23CC(C2)C3)c1=O` [III-151, (S,E)-N1-allyl-N7-(1-(2-(bicyclo[1.1.1]pentan-1-ylamino)-2-oxoethyl)-2-oxo-1,2-dihydropyridin-3-yl)-6-(2,6-naphthyridine-1-carboxamido)hept-2-enediamide] returned a Papp in data set [1] of less than 1 ×10⁻⁶ cm/s. In addition, the logD in data set [2] was less than 1. The IC50 in data set [3] fell in the range of 0.25 to 1.5 µM.
Turning to `Cc1oc(Br)cc1C(=O)N[C@@H](CC/C=C/C(=O)Nc1ccccc1)C(=O)Nc1cccn(CC(=O)NC23CC(C2)C3)c1=O` [III-152, (S,E)-N7-(1-(2-(bicyclo[1.1.1]pentan-1-ylamino)-2-oxoethyl)-2-oxo-1,2-dihydropyridin-3-yl)-6-(5-bromo-2-methylfuran-3-carboxamido)-N1-phenylhept-2-enediamide], the Papp in data set [1] is 1 to 10 ×10⁻⁶ cm/s. In data set [2], this compound gave a logD of 1 to 3. Besides, the IC50 in data set [3] lay in the range of 0.025 to 0.25 µM.
The matching figures for `Cc1cc(C(=O)N[C@@H](CC/C=C/C(=O)Nc2ccccc2)C(=O)Nc2cccn(CC(=O)NC34CC(C3)C4)c2=O)c(C)o1` [III-153, (S,E)-N7-(1-(2-(bicyclo[1.1.1]pentan-1-ylamino)-2-oxoethyl)-2-oxo-1,2-dihydropyridin-3-yl)-6-(2,5-dimethylfuran-3-carboxamido)-N1-phenylhept-2-enediamide]: 1 to 10 ×10⁻⁶ cm/s, 1 to 3 and 0.025 to 0.25 µM.
The matching figures for `O=C(/C=C/CC[C@H](NC(=O)c1nc(Cl)sc1Cl)C(=O)Nc1cccn(CC(=O)NC23CC(C2)C3)c1=O)NCc1ccccc1` [III-154, (S,E)-N1-benzyl-N7-(1-(2-(bicyclo[1.1.1]pentan-1-ylamino)-2-oxoethyl)-2-oxo-1,2-dihydropyridin-3-yl)-6-(2,5-dichlorothiazole-4-carboxamido)hept-2-enediamide]: 1 to 10 ×10⁻⁶ cm/s, 1 to 3 and 0.25 to 1.5 µM.
For `O=C(/C=C/CC[C@H](NC(=O)c1nc(Br)cs1)C(=O)Nc1cccn(CC(=O)NC23CC(C2)C3)c1=O)NCc1ccccc1` [III-155, (S,E)-N1-benzyl-N7-(1-(2-(bicyclo[1.1.1]pentan-1-ylamino)-2-oxoethyl)-2-oxo-1,2-dihydropyridin-3-yl)-6-(4-bromothiazole-2-carboxamido)hept-2-enediamide] the same measures were 1 to 10 ×10⁻⁶ cm/s, 1 to 3 and 0.025 to 0.25 µM.
Consider `Cn1ccnc1C(=O)N[C@@H](CC/C=C/C(=O)c1ccccc1)C(=O)Nc1cccn(CC(=O)NC23CC(C2)C3)c1=O` [III-157, (S,E)-N-(1-(1-(2-(bicyclo[1.1.1]pentan-1-ylamino)-2-oxoethyl)-2-oxo-1,2-dihydropyridin-3-ylamino)-1,7-dioxo-7-phenylhept-5-en-2-yl)-1-methyl-1H-imidazole-2-carboxamide], for which the Papp in data set [1] is less than 1 ×10⁻⁶ cm/s. This compound registered a logD in data set [2] of 1 to 3. Besides, the IC50 in data set [3] was in the range of 0.25 to 1.5 µM.
For `CC(C)OC(=O)/C=C/CC[C@H](NC(=O)c1cn[nH]n1)C(=O)Nc1cccn(CC(=O)NC23CCC(C2)C3)c1=O` [III-158, (S,E)-isopropyl 7-(1-(2-(bicyclo[2.1.1]hexan-1-ylamino)-2-oxoethyl)-2-oxo-1,2-dihydropyridin-3-ylamino)-7-oxo-6-(2H-1,2,3-triazole-4-carboxamido)hept-2-enoate] the same measures were less than 1 ×10⁻⁶ cm/s, less than 1 and 0.25 to 1.5 µM.
The matching figures for `CC(=O)/C=C/CC[C@H](NC(=O)c1ncn(C)n1)C(=O)Nc1cccn(CC(=O)NC2C3CCCC2CC3)c1=O` (stereo partly drawn) [III-159, N-((2S,E)-1-(1-(2-(bicyclo[3.2.1]octan-8-ylamino)-2-oxoethyl)-2-oxo-1,2-dihydropyridin-3-ylamino)-1,7-dioxooct-5-en-2-yl)-1-methyl-1H-1,2,4-triazole-3-carboxamide]: less than 1 ×10⁻⁶ cm/s, less than 1 and 0.25 to 1.5 µM.
On to `COC(=O)/C=C/CC[C@H](NC(=O)c1nonc1N)C(=O)Nc1cccn(CC(=O)NC23CC(C2)C3)c1=O` [III-160, (S,E)-methyl 6-(4-amino-1,2,5-oxadiazole-3-carboxamido)-7-(1-(2-(bicyclo[1.1.1]pentan-1-ylamino)-2-oxoethyl)-2-oxo-1,2-dihydropyridin-3-ylamino)-7-oxohept-2-enoate], for which the Papp in data set [1] was less than 1 ×10⁻⁶ cm/s. This compound showed a logD in data set [2] of less than 1. In addition, in data set [3], the IC50 fell in the range of 0.25 to 1.5 µM.
